The subject of experiment [1] is Human KRAS mutant pancreatic cancer cell lines stably expressing a tandem fluorescent GFP-LC3-RFP-LC3ΔG reporter. Put plainly: Autophagic flux (GFP-LC3-RFP-LC3ΔG reporter, flow cytometry). Format: cell-based. To be noted: 1 μM avutometinib, 24 hours, vs vehicle (DMSO); all 3 cell lines tested; 2D conditions. The procedure:
Human KRAS mutant pancreatic cancer cell lines stably expressing a tandem fluorescent GFP-LC3-RFP-LC3ΔG reporter were grown in 2D conditions. Briefly, cells were seeded in 96-well plates and after an overnight incubation (17-22 hours), cells were treated with 1 μM of the RAF/MEK clamp avutometinib (VS-6766) for 24 hours. Following treatment, cells were collected and changes in autophagic flux were measured by flow cytometry. Autophagic flux was quantified by calculating the ratio of RFP/GFP in cell lines tested. Autophagic flux was assessed in a panel of 3 human KRAS mutant pancreatic cancer cell lines stably expressing a tandem fluorescent GFP-LC3-RFP-LC3ΔG reporter (FIG. 1). […] In FIG. 1, human KRAS mutant pancreatic cancer cell lines stably expressing a tandem fluorescent GFP-LC3-RFP-LC3ΔG reporter were treated with vehicle (DMSO) or avutometinib for 24 hours. Following treatment, cells were collected and changes in autophagic flux were measured by flow cytometry. Autophagic flux was quantified by calculating the ratio of RFP/GFP in cell lines tested.

In experiment [2] the test system is human KRAS mutant pancreatic cancer cell lines. Put plainly: Proliferation assay (live cell counting) with Bliss synergy analysis. It is filed as cell-based. To be noted: 5 days, panel of 4 cell lines, 2D conditions. The procedure: Parental human KRAS mutant pancreatic cancer cell lines were grown in 2D conditions. Briefly, cells were seeded in 96-well plates and after an overnight incubation (17-22 hours), cells were treated with the RAF/MEK clamp avutometinib (VS-6766)+/− the autophagy pathway inhibitor chloroquine (CQ) or apilimod (AP) for 5 days. Following drug treatment, live cell counting was performed and plotted to quantify effects on proliferation. Bliss synergy analysis were performed to calculate synergy scores between avutometinib+chloroquine and avutometinib+apilimod.
Proliferation assays were performed to determine whether chloroquine (CQ) or apilimod (AP) augmented the anti-proliferative activity of avutometinib in a panel of 4 human KRAS mutant pancreatic cancer cell lines (FIG. 2). Following drug treatment, live cell counting was performed and plotted to quantify effects on proliferation. Heatmaps indicating BLISS synergy scores are shown (Red=synergy, white=additivity, green=antagonism).

`CNS(=O)(=O)Nc1nccc(Cc2c(C)c3ccc(Oc4ncccn4)cc3oc2=O)c1F` [avutometinib]: the “increase of autophagic flux (ratio of RFP/GFP)” value in experiment [1] is “two-to six”. Further, the “Bliss synergy with apilimod in reducing cell viability” value in experiment [2] (avutometinib + apilimod (AP)) is “synergistic”. In addition, the “Bliss synergy with chloroquine in reducing cell viability” value in experiment [2] (avutometinib + chloroquine (CQ)) is listed as “synergistic”.

Source of the values: patent US20250064804A1, “COMBINATION THERAPY FOR TREATING ABNORMAL CELL GROWTH” (Verastem, Inc., priority 2021, published 2025).
